Measurements: patent US20230085307A1, “PYRIDAZINONE COMPOUND AND HERBICIDE” (NISSAN CHEMICAL CORPORATION, priority 2019, published 2023)

Test system: rice flat sedge
Assay: Test Example 3: herbicidal effect by foliage application, Wagner pot (Table 18, symbol E)
Type: in vivo, rice flat sedge (Cyperus iria)
Conditions: 320 g/ha
Outline: (§1)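 Plants were sown in alluvial soil held under 0.1–0.5 cm standing water and grown 14 days in a greenhouse at 25–30 °C. An emulsifiable formulation, water-diluted to the set dose, was then sprayed onto the foliage, and effects were scored three weeks later using previously defined criteria.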

| SMILES | herbicidal effect on E (rice flat sedge), rating 0-5 |
| --- | --- |
| Cc1nn(C)c(=O)c(-c2c(-c3ccc(OCC#N)cc3)sc3ccccc23)c1O [1-137] | 5 (Herbicidal rate of 90% or more (almost completely withered)) |

Test system: green foxtail
Assay: Test Example 5: herbicidal effect by foliage application, plastic box (Table 20, symbol G)
Type: in vivo, green foxtail (Setaria viridis)
Conditions: foliage application, AAH 320 g/ha, three weeks after application
Outline: (§2)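 Plants were sown into sterilized diluvial soil under about 1.5 cm cover and kept in a greenhouse at 25° C. to 30° C. Fourteen days on, foliage received an even spray of the diluted emulsion. Herbicidal or crop effect was judged three weeks afterwards.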

| SMILES | G: green foxtail, herbicidal effect |
| --- | --- |
| Cc1nn(C)c(=O)c(-c2c(-c3ccc(OCC#N)cc3)sc3ccccc23)c1O [1-137] | 0 (Herbicidal rate of 5% or less (almost no effect)) |

Test system: blackgrass
Assay: Test Example 5: herbicidal effect by foliage application, plastic box (Table 20, symbol J)
Type: in vivo, blackgrass (Alopecurus myosuroides)
Conditions: foliage application, AAH 320 g/ha, three weeks after application
Outline: as §2

| SMILES | J: blackgrass, herbicidal effect |
| --- | --- |
| Cc1nn(C)c(=O)c(-c2c(-c3ccc(OCC#N)cc3)sc3ccccc23)c1O [1-137] | 0 (Herbicidal rate of 5% or less (almost no effect)) |

Test system: barnyard grass
Assay: Test Example 4: herbicidal effect by soil treatment (Table 19, symbol H)
Type: in vivo, barnyard grass (Echinochloa crus-galli)
Conditions: AAH 320 g/ha
Outline: (§3)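 In this soil treatment, the formulated compound reached the seeds only through the soil: seeds were buried about 1.5 cm deep in sterilized diluvial soil, then the diluted emulsion was sprayed over the surface. After three weeks at 25° C. to 30° C. in a greenhouse, effects were graded on criteria from an earlier test.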

| SMILES | H: barnyard grass, herbicidal effect rating |
| --- | --- |
| Cc1nn(C)c(=O)c(-c2c(-c3ccc(OCC#N)cc3)sc3ccccc23)c1O [1-137] | 0 (Herbicidal rate of 5% or less (almost no effect)) |

Test system: barnyard grass
Assay: Test Example 3: herbicidal effect by foliage application, Wagner pot (Table 18, symbol H)
Type: in vivo, barnyard grass (Echinochloa crus-galli)
Conditions: 320 g/ha
Outline: as §1

| SMILES | herbicidal effect on H (barnyard grass), rating 0-5 |
| --- | --- |
| Cc1nn(C)c(=O)c(-c2c(-c3ccc(OCC#N)cc3)sc3ccccc23)c1O [1-137] | 3 (Herbicidal rate of 40% or more and less than 70%) |

Test system: lambsquarters
Assay: Test Example 5: herbicidal effect by foliage application, plastic box (Table 20, symbol O)
Type: in vivo, lambsquarters (Chenopodium album)
Conditions: foliage application, AAH 320 g/ha, three weeks after application
Outline: as §2

| SMILES | O: lambsquarters, herbicidal effect |
| --- | --- |
| Cc1nn(C)c(=O)c(-c2c(-c3ccc(OCC#N)cc3)sc3ccccc23)c1O [1-137] | 3 (Herbicidal rate of 40% or more and less than 70%) |

Test system: redroot pigweed
Assay: Test Example 4: herbicidal effect by soil treatment (Table 19, symbol N)
Type: in vivo, redroot pigweed (Amaranthus retroflexus)
Conditions: AAH 320 g/ha
Outline: as §3

| SMILES | N: redroot pigweed, herbicidal effect rating |
| --- | --- |
| Cc1nn(C)c(=O)c(-c2c(-c3ccc(OCC#N)cc3)sc3ccccc23)c1O [1-137] | 3 (Herbicidal rate of 40% or more and less than 70%) |

Test system: windgrass
Assay: Test Example 4: herbicidal effect by soil treatment (Table 19, symbol L)
Type: in vivo, windgrass (Apera spica-venti)
Conditions: AAH 320 g/ha
Outline: as §3

| SMILES | L: windgrass, herbicidal effect rating |
| --- | --- |
| Cc1nn(C)c(=O)c(-c2c(-c3ccc(OCC#N)cc3)sc3ccccc23)c1O [1-137] | 0 (Herbicidal rate of 5% or less (almost no effect)) |

Test system: green foxtail
Assay: Test Example 4: herbicidal effect by soil treatment (Table 19, symbol G)
Type: in vivo, green foxtail (Setaria viridis)
Conditions: AAH 320 g/ha
Outline: as §3

| SMILES | G: green foxtail, herbicidal effect rating |
| --- | --- |
| Cc1nn(C)c(=O)c(-c2c(-c3ccc(OCC#N)cc3)sc3ccccc23)c1O [1-137] | 2 (Herbicidal rate of 20% or more and less than 40%) |

Test system: chickweed
Assay: Test Example 4: herbicidal effect by soil treatment (Table 19, symbol P)
Type: in vivo, common chickweed (Stellaria media)
Conditions: AAH 320 g/ha
Outline: as §3

| SMILES | P: chickweed, herbicidal effect rating |
| --- | --- |
| Cc1nn(C)c(=O)c(-c2c(-c3ccc(OCC#N)cc3)sc3ccccc23)c1O [1-137] | 0 (Herbicidal rate of 5% or less (almost no effect)) |

Test system: chickweed
Assay: Test Example 5: herbicidal effect by foliage application, plastic box (Table 20, symbol P)
Type: in vivo, common chickweed (Stellaria media)
Conditions: foliage application, AAH 320 g/ha, three weeks after application
Outline: as §2

| SMILES | P: chickweed, herbicidal effect |
| --- | --- |
| Cc1nn(C)c(=O)c(-c2c(-c3ccc(OCC#N)cc3)sc3ccccc23)c1O [1-137] | 3 (Herbicidal rate of 40% or more and less than 70%) |

Test system: velvetleaf
Assay: Test Example 5: herbicidal effect by foliage application, plastic box (Table 20, symbol M)
Type: in vivo, velvetleaf (Abutilon theophrasti)
Conditions: foliage application, AAH 320 g/ha, three weeks after application
Outline: as §2

| SMILES | M: velvetleaf, herbicidal effect |
| --- | --- |
| Cc1nn(C)c(=O)c(-c2c(-c3ccc(OCC#N)cc3)sc3ccccc23)c1O [1-137] | 3 (Herbicidal rate of 40% or more and less than 70%) |

Test system: southern crabgrass
Assay: Test Example 5: herbicidal effect by foliage application, plastic box (Table 20, symbol F)
Type: in vivo, southern crabgrass (Digitaria ciliaris)
Conditions: foliage application, AAH 320 g/ha, three weeks after application
Outline: as §2

| SMILES | F: southern crabgrass, herbicidal effect |
| --- | --- |
| Cc1nn(C)c(=O)c(-c2c(-c3ccc(OCC#N)cc3)sc3ccccc23)c1O [1-137] | 0 (Herbicidal rate of 5% or less (almost no effect)) |

Test system: barnyard grass
Assay: Test Example 5: herbicidal effect by foliage application, plastic box (Table 20, symbol H)
Type: in vivo, barnyard grass (Echinochloa crus-galli)
Conditions: foliage application, AAH 320 g/ha, three weeks after application
Outline: as §2

| SMILES | H: barnyard grass, herbicidal effect |
| --- | --- |
| Cc1nn(C)c(=O)c(-c2c(-c3ccc(OCC#N)cc3)sc3ccccc23)c1O [1-137] | 1 (Herbicidal rate of 5% or more and less than 20%) |

Test system: Chinese sprangletop
Assay: Test Example 3: herbicidal effect by foliage application, Wagner pot (Table 18, symbol D)
Type: in vivo, chinese sprangletop (Leptochloa chinensis)
Conditions: 320 g/ha
Outline: as §1

| SMILES | herbicidal effect on D (Chinese sprangletop), rating 0-5 |
| --- | --- |
| Cc1nn(C)c(=O)c(-c2c(-c3ccc(OCC#N)cc3)sc3ccccc23)c1O [1-137] | 3 (Herbicidal rate of 40% or more and less than 70%) |

Test system: Italian ryegrass
Assay: Test Example 4: herbicidal effect by soil treatment (Table 19, symbol K)
Type: in vivo, Italian ryegrass (Lolium multiflorum)
Conditions: AAH 320 g/ha
Outline: as §3

| SMILES | K: Italian ryegrass, herbicidal effect rating |
| --- | --- |
| Cc1nn(C)c(=O)c(-c2c(-c3ccc(OCC#N)cc3)sc3ccccc23)c1O [1-137] | 0 (Herbicidal rate of 5% or less (almost no effect)) |

Test system: velvetleaf
Assay: Test Example 4: herbicidal effect by soil treatment (Table 19, symbol M)
Type: in vivo, velvetleaf (Abutilon theophrasti)
Conditions: AAH 320 g/ha
Outline: as §3

| SMILES | M: velvetleaf, herbicidal effect rating |
| --- | --- |
| Cc1nn(C)c(=O)c(-c2c(-c3ccc(OCC#N)cc3)sc3ccccc23)c1O [1-137] | 0 (Herbicidal rate of 5% or less (almost no effect)) |

Test system: wild oat
Assay: Test Example 4: herbicidal effect by soil treatment (Table 19, symbol I)
Type: in vivo, wild oat (Avena fatua)
Conditions: AAH 320 g/ha
Outline: as §3

| SMILES | I: wild oat, herbicidal effect rating |
| --- | --- |
| Cc1nn(C)c(=O)c(-c2c(-c3ccc(OCC#N)cc3)sc3ccccc23)c1O [1-137] | 0 (Herbicidal rate of 5% or less (almost no effect)) |

Test system: southern crabgrass
Assay: Test Example 4: herbicidal effect by soil treatment (Table 19, symbol F)
Type: in vivo, southern crabgrass (Digitaria ciliaris)
Conditions: AAH 320 g/ha
Outline: as §3

| SMILES | F: southern crabgrass, herbicidal effect rating |
| --- | --- |
| Cc1nn(C)c(=O)c(-c2c(-c3ccc(OCC#N)cc3)sc3ccccc23)c1O [1-137] | 0 (Herbicidal rate of 5% or less (almost no effect)) |

Test system: wild oat
Assay: Test Example 5: herbicidal effect by foliage application, plastic box (Table 20, symbol I)
Type: in vivo, wild oat (Avena fatua)
Conditions: foliage application, AAH 320 g/ha, three weeks after application
Outline: as §2

| SMILES | I: wild oat, herbicidal effect |
| --- | --- |
| Cc1nn(C)c(=O)c(-c2c(-c3ccc(OCC#N)cc3)sc3ccccc23)c1O [1-137] | 0 (Herbicidal rate of 5% or less (almost no effect)) |

Test system: persian speedwell
Assay: Test Example 5: herbicidal effect by foliage application, plastic box (Table 20, symbol R)
Type: in vivo, Persian speedwell (Veronica persica)
Conditions: foliage application, AAH 320 g/ha, three weeks after application
Outline: as §2

| SMILES | R: persian speedwell, herbicidal effect |
| --- | --- |
| Cc1nn(C)c(=O)c(-c2c(-c3ccc(OCC#N)cc3)sc3ccccc23)c1O [1-137] | 4 (Herbicidal rate of 70% or more and less than 90%) |

Test system: blackgrass
Assay: Test Example 4: herbicidal effect by soil treatment (Table 19, symbol J)
Type: in vivo, blackgrass (Alopecurus myosuroides)
Conditions: AAH 320 g/ha
Outline: as §3

| SMILES | J: blackgrass, herbicidal effect rating |
| --- | --- |
| Cc1nn(C)c(=O)c(-c2c(-c3ccc(OCC#N)cc3)sc3ccccc23)c1O [1-137] | 0 (Herbicidal rate of 5% or less (almost no effect)) |

Test system: redroot pigweed
Assay: Test Example 5: herbicidal effect by foliage application, plastic box (Table 20, symbol N)
Type: in vivo, redroot pigweed (Amaranthus retroflexus)
Conditions: foliage application, AAH 320 g/ha, three weeks after application
Outline: as §2

| SMILES | N: redroot pigweed, herbicidal effect |
| --- | --- |
| Cc1nn(C)c(=O)c(-c2c(-c3ccc(OCC#N)cc3)sc3ccccc23)c1O [1-137] | 0 (Herbicidal rate of 5% or less (almost no effect)) |

Test system: lambsquarters
Assay: Test Example 4: herbicidal effect by soil treatment (Table 19, symbol O)
Type: in vivo, lambsquarters (Chenopodium album)
Conditions: AAH 320 g/ha
Outline: as §3

| SMILES | O: lambsquarters, herbicidal effect rating |
| --- | --- |
| Cc1nn(C)c(=O)c(-c2c(-c3ccc(OCC#N)cc3)sc3ccccc23)c1O [1-137] | 2 (Herbicidal rate of 20% or more and less than 40%) |

Test system: persian speedwell
Assay: Test Example 4: herbicidal effect by soil treatment (Table 19, symbol R)
Type: in vivo, Persian speedwell (Veronica persica)
Conditions: AAH 320 g/ha
Outline: as §3

| SMILES | R: persian speedwell, herbicidal effect rating |
| --- | --- |
| Cc1nn(C)c(=O)c(-c2c(-c3ccc(OCC#N)cc3)sc3ccccc23)c1O [1-137] | 3 (Herbicidal rate of 40% or more and less than 70%) |

Test system: Italian ryegrass
Assay: Test Example 5: herbicidal effect by foliage application, plastic box (Table 20, symbol K)
Type: in vivo, Italian ryegrass (Lolium multiflorum)
Conditions: foliage application, AAH 320 g/ha, three weeks after application
Outline: as §2

| SMILES | K: Italian ryegrass, herbicidal effect |
| --- | --- |
| Cc1nn(C)c(=O)c(-c2c(-c3ccc(OCC#N)cc3)sc3ccccc23)c1O [1-137] | 0 (Herbicidal rate of 5% or less (almost no effect)) |

Test system: windgrass
Assay: Test Example 5: herbicidal effect by foliage application, plastic box (Table 20, symbol L)
Type: in vivo, windgrass (Apera spica-venti)
Conditions: foliage application, AAH 320 g/ha, three weeks after application
Outline: as §2

| SMILES | L: windgrass, herbicidal effect |
| --- | --- |
| Cc1nn(C)c(=O)c(-c2c(-c3ccc(OCC#N)cc3)sc3ccccc23)c1O [1-137] | 0 (Herbicidal rate of 5% or less (almost no effect)) |
